Experimental findings from patent US6469028B1, “Synthesis and use of retinoid compounds having negative hormone and/or anatgonist activities” (Allergan, Inc., priority 1995, dated 2002) are described below.

The target in one test is T1, RARα (Homo sapiens, UniProt P10276).
T1 sequence (P10276 1-462): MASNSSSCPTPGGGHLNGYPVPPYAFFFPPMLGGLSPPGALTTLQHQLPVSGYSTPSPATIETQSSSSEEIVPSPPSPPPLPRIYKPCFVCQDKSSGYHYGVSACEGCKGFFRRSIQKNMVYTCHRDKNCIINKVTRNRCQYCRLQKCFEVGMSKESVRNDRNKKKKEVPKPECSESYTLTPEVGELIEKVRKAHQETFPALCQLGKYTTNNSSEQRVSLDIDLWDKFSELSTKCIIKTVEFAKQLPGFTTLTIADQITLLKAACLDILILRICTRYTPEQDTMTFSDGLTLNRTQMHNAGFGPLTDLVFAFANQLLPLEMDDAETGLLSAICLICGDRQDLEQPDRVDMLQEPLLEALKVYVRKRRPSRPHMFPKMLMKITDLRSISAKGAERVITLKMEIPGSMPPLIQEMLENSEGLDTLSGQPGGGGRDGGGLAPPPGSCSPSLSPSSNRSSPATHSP
Nature of the test: Holoreceptor transactivation assay. In kind it is cell-based. On the set-up: expressed in transfected cells; host or cells: CV1 cells. Conditions: relative to all trans retinoic acid; read-out: Transactivation Assay Efficacy (% of RA activity) RARα.

Another test concerns the target T2, RARγ (Homo sapiens, UniProt P13631).
T2 sequence (P13631 1-454): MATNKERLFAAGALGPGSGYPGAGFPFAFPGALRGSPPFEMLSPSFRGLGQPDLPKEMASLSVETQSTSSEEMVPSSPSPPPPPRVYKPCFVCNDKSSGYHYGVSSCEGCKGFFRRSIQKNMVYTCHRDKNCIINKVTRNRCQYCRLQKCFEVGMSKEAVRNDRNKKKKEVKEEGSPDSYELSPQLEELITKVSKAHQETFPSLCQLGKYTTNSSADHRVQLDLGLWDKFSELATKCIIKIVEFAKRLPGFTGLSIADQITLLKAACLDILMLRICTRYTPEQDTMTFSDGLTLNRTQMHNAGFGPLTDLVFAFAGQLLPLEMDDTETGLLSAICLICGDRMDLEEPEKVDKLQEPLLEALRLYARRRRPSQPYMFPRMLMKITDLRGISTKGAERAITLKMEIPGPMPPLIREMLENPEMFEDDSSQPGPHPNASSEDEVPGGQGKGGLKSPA
Nature of the test: Holoreceptor transactivation assay. Type of test: cell-based. On the set-up: expressed in transfected cells; host or cells: CV1 cells. To be noted: relative to all trans retinoic acid; read-out: Transactivation Assay Efficacy (% of RA activity) RARγ.

For the molecule `Cc1ccc(C2=CCC(C)(C)c3ccc(C(=O)Nc4ccc(C(=O)O)c(F)c4)cc32)cc1` [Compound 41, 2-Fluoro-4-[[(5,6-dihydro-5,5-dimethyl-8-(4methylphenyl)-2-naphthalenyl)carbonyl]amino]-benzoic acid], the Emax on RARα stood at 3%; at RARγ, 6%.
For `CC1(C)CC=C(c2cccc(O)c2)c2cc(C#Cc3ccc(C(=O)O)cc3)ccc21` [Compound 28, 4-[(5,6-Dihydro5,5-dimethyl-8-(3-hydroxyphenyl)-2-naphthalenyl)ethynyl]benzoic acid], in that order: 2% and 2%.
The matching figures for `Cc1cnc(C2=CCC(C)(C)c3ccc(C#Cc4ccc(C(=O)O)cc4)cc32)s1` [Compound 30, 4-[(5,6-Dihydro-5,5-dimethyl-8-(5-methylthiazol-2-yl)-2-naphthalenyl)ethynyl]benzoic acid]: 3% and 1%.
The matching figures for `Cc1cc(C)cc(C2=CCC(C)(C)c3ccc(C#Cc4ccc(C(=O)O)cc4)cc32)c1` [Compound 24, 4-[(5 6-Dihydro-5,5-dimethyl-8-(3,5-dimethylphenyl)-2-naphthalenyl)ethynyl]benzoic acid]: 3% and 4%.
For the molecule `Cc1cccc(C2=CCC(C)(C)c3ccc(C#Cc4ccc(C(=O)O)cc4)cc32)c1` [Compound 20, 4-[(5,6-Dihydro-5,5-dimethyl-8-(3-methylphenyl)-2-naphthalenyl)ethynyl]benzoic acid], the Emax on RARα stood at 3%; at RARγ it was 0%.
The matching figures for `CC1(C)CC=C(c2cccnc2)c2cc(C#Cc3ccc(C(=O)O)cc3)ccc21` [Compound 26, 4-[(5,6-Dihydro-5,5-dimethyl-8-(3-pyridyl)-2-naphthalenyl)ethynyl]benzoic acid]: 1% and 0%.
`CC(/C=C/C=C(\C)c1ccc2c(c1)C(c1ccc(C)cc1)=CCC2(C)C)=C\C(=O)O` [Compound 52, (E,E,E)-3-methyl-7-(5,6-dihydro-5,5-dimethyl-8-(4-methylphenyl)-2-naphthalenyl)-2,4,6-octatrienoic acid]: the values for the Emax on RARα and at RARγ were 0% and 3%, respectively.
The matching figures for `Cc1ccc(C2=CCC(C)(C)c3ccc(C#Cc4ccc(C(=O)O)cc4)cc32)cn1` [Compound 18, 4-[(5,6-Dihydro-5,5-dimethyl-8-(2-methyl-5-pyridyl)-2-naphthalenyl)ethynyl]benzoic acid]: 4% and 0%.
The matching figures for `Cc1ccc(C2=CCC(C)(C)c3cc(C(=O)C=Cc4ccc(C(=O)O)cc4)ccc32)cc1` [Compound 101, 4-[3-oxo-3-(7,8-dihydro-5-(4-methylphenyl)-8,8-dimethyl-2-naphthalenyl)-1-propenyl]-benzoic acid]: 0% and 2%.
For `CC1(C)CC=C(c2ccc(Cl)cc2)c2cc(C#Cc3ccc(C(=O)O)cc3)ccc21` [Compound 25, 4-[(5,6-Dihydro-5,5-dimethyl-8-(4-chlorophenyl)-2-naphthalenyl)ethynyl]benzoic acid], in that order: 2% and 3%.
As to `Cc1ccc(C2=CCC(C)(C)c3ccc(N=Nc4ccc(C(=O)O)cc4)cc32)cc1` [Compound 46b, 4-[(5,6-dihydro-5,5-dimethyl-8-(4-methylphenyl)-2-naphthalenyl)azo]-benzoic acid], the values for the Emax on RARα and at RARγ were 4% and 3%, respectively.
`Cc1ccc(C2=CCC(C)(C)c3ccc(/C=C/c4ccc(C(=O)O)cc4)cc32)cc1` [Compound 45]: the Emax on RARα worked out at 2%; at RARγ, 7%.
Turning to `Cc1ccc(C2=CCC(C)(C)c3ccc(C#Cc4ccc(C(=O)O)cc4)cc32)cc1` [Compound 60, 4-[(5,6-dihydro-5,5-dimethyl-8-(4-methylphenyl)-2-naphthalenyl)ethynyl]benzoic acid], the Emax worked out at 0% on RARα and 4% on RARγ.
For `CC(C)(C)c1ccc(C2=CCC(C)(C)c3ccc(C#Cc4ccc(C(=O)O)cc4)cc32)cc1` [Compound 61, 4-[(5,6-Dihydro-5,5-dimethyl-8-(4-(1,1-dimethylethyl)phenyl)-2-naphthalenyl)ethynyl]benzoic acid], in that order: 2% and 0%.
For `CC1(C)CC=C(c2ccccn2)c2cc(C#Cc3ccc(C(=O)O)cc3)ccc21` [Compound 19, 4-[(5,6-Dihydro-5,5-dimethyl-8-(2-pyridyl)-2-naphthalenyl)ethynyl]benzoic acid], in that order: 0% and 3%.
As to `CC1(C)CC=C(c2ccc(O)cc2)c2cc(C#Cc3ccc(C(=O)O)cc3)ccc21` [Compound 29, 4-[(5,6-Dihydro-5,5-dimethyl-8-(4-hydroxyphenyl)-2-naphthalenyl)ethynyl]benzoic acid], the Emax on RARα came out at 0%; at RARγ, 11%.
For `Cc1ccccc1C1=CCC(C)(C)c2ccc(C#Cc3ccc(C(=O)O)cc3)cc21` [Compound 27, 4-[(5,6-Dihydro-5,5-dimethyl-8-(2-methylphenyl)-2-naphthalenyl)ethynyl]benzoic acid], in that order: 9% and 6%.
For `COc1ccc(C2=CCC(C)(C)c3ccc(C#Cc4ccc(C(=O)O)cc4)cc32)cc1` [Compound 22, 4-[(5,6-Dihydro-5,5-dimethyl-8-(4-methoxyphenyl)-2-naphthalenyl)ethynyl]benzoic acid], in that order: 0% and 2%.
For `Cc1ccc(C2=CCC(C)(C)c3ccc(C#Cc4ccc(C(=O)O)cc4)cc32)s1` [Compound 34, 4-[(5,6-Dihydro-5,5-dimethyl-8-(5-methyl-2-thienyl)-2-naphthalenyl)ethynyl]benzoic acid], in that order: 3% and 2%.
For the molecule `Cc1csc(C2=CCC(C)(C)c3ccc(C#Cc4ccc(C(=O)O)cc4)cc32)n1` [Compound 31, 4-[(5,6-Dihydro-5,5-dimethyl-8-(4-methylthiazol-2-yl)-2-naphthalenyl)ethynyl]benzoic acid], the Emax is 4% on RARα and 2% at RARγ.
The matching figures for `CC1(C)CC=C(c2ccccc2)c2ccc(C(=O)C=Cc3ccc(C(=O)O)cc3)cc21` [Compound 103, 4-[3-oxo-3-(7,8-dihydro-5-phenyl-8,8-dimethyl-2-naphthalenyl)-1-propenyl]-benzoic acid]: 4% and 7%.
The matching figures for `Cc1ccc(C2=CCC(C)(C)c3ccc(C(=O)Oc4ccc(C(=O)O)cc4)cc32)cc1` [Compound 39, 4-[[(5,6-Dihydro-5,5-dimethyl-8-(4-methylphenyl)-2-naphthalenyl)carbonyl]oxy]-benzoic acid]: 1% and 9%.
As for `Cc1ccc(C2=CCC(C)(C)c3ccc(C(=S)Nc4ccc(C(=O)O)c(F)c4)cc32)cc1` [Compound 63, 2-fluoro-4-[[(5,6-dihydro-5,5-dimethyl-8-(4-methylphenyl)-2-naphthalenyl)thiocarbonyl]amino]-benzoic acid], the Emax at RARα came out at 2%; at RARγ it was 7%.
The matching figures for `Cc1nc(C2=CCC(C)(C)c3ccc(C#Cc4ccc(C(=O)O)cc4)cc32)sc1C` [Compound 32]: 0% and 2%.
As for `CC1(C)CC=C(c2ccc(C(F)(F)F)cc2)c2cc(C#Cc3ccc(C(=O)O)cc3)ccc21` [Compound 23, 4-[(5,6-Dihydro-5,5-dimethyl-8-(4-trifluoromethylphenyl)-2-naphthalenyl)ethynyl]benzoic acid], the Emax at RARα amounted to 0%; at RARγ, 3%.
For `Cc1ccc(C2=CCC(C)(C)c3ccc(C(=O)Nc4ccc(C(=O)O)cc4)cc32)cc1` [Compound 36, 4-[[(5,6-Dihydro-5,5-dimethyl-8-(4-methylphenyl)-2-naphthalenyl)carbonyl]amino]-benzoic acid], in that order: 1% and 0%.
As to `CCc1ccc(C2=CCC(C)(C)c3ccc(C#Cc4ccc(C(=O)O)cc4)cc32)cc1` [Compound 21, 4-[(5,6-Dihydro-5,5-dimethyl-8-(4-ethylphenyl)-2-naphthalenyl)ethynyl]benzoic acid], the Emax on RARα and on RARγ was 2% throughout.
